We go through 6 compounds from ChEMBL document CHEMBL1201862, “PubChem BioAssay data set” (2004).

Test [1] addresses Transitional endoplasmic reticulum ATPase (Homo sapiens, UniProt P55072). Kind of test: p97 ATPase inhibitors, dose response, biochemical (AID 1534).
In test [2] the target is T1, Aminopeptidase N (Plasmodium falciparum FcB1/Columbia, UniProt O96935).
T1 sequence (O96935 whole entry): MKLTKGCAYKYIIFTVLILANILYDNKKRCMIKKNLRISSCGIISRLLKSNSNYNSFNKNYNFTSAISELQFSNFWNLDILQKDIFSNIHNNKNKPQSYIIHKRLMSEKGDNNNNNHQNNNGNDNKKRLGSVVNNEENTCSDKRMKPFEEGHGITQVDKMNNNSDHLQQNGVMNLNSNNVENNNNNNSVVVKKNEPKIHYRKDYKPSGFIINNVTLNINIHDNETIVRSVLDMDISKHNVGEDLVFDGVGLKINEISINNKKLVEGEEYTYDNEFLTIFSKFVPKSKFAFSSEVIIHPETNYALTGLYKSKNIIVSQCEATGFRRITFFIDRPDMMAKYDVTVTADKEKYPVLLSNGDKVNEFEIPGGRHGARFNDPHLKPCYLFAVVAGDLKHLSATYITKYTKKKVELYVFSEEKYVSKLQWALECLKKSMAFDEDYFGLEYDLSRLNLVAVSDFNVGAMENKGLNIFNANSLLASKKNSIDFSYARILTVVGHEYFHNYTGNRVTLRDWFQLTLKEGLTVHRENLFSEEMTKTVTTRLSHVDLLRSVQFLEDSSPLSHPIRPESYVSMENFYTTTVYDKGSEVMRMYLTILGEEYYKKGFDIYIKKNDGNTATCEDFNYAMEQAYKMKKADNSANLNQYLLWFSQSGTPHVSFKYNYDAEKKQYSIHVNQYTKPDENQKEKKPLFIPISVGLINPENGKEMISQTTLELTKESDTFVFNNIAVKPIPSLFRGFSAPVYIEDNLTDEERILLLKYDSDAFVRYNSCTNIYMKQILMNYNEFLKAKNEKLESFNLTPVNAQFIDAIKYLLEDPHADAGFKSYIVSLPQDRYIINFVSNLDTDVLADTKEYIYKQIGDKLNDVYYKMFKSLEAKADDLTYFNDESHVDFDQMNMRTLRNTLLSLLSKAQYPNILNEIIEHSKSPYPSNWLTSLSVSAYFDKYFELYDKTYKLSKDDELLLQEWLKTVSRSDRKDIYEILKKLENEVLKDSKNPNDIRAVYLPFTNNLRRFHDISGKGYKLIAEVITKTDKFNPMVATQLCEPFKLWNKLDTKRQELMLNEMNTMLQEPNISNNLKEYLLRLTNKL
As to the kind of experiment: P. falciparum M1AAP inhibitors, biochemical, fluorogenic H-Leu-NHMec substrate, 1536-well (AID 1445). More on the design: species or system Plasmodium falciparum 3D7, 3D7.

For test [3], the target named is Transitional endoplasmic reticulum ATPase (Homo sapiens, UniProt P55072, C522A). Kind of test: C522A mutant p97 ATPase inhibitors, dose response, counter-screen for p97 inhibitor project, biochemical, luminescence (AID 1544). A general note: Counterscreens check selectivity or assay interference.
For test [4], the target named is Signal transducer and activator of transcription 3 (Homo sapiens, UniProt P40763). As to the kind of experiment: STAT3 activators, late-stage profile, late-stage follow-up, cell-based, STAT1 reporter, BCL3 qPCR, cytotoxicity, panel member STAT3 Activation (AID 2049). In general terms: In qPCR the cycle at which signal appears reflects the starting amount.
Test [5] addresses T2, Alkaline phosphatase, tissue-nonspecific isozyme (Homo sapiens, UniProt P05186).
T2 sequence (P05186 whole entry): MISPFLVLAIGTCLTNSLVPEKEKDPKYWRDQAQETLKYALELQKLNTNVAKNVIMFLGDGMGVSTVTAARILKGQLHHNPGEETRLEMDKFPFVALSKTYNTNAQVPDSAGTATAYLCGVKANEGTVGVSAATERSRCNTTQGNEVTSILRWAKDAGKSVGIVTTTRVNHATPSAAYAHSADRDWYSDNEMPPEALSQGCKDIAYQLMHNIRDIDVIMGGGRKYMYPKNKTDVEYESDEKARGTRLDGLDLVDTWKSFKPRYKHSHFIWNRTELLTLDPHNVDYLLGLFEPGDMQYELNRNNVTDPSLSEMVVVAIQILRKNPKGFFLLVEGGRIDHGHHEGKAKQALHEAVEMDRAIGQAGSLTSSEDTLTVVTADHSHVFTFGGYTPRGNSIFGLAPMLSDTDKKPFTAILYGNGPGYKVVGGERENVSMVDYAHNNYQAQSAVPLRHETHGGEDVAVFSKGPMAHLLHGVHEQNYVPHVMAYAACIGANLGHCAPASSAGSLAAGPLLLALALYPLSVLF

In test [6] the target is Lysosomal acid glucosylceramidase (Homo sapiens, UniProt P04062). As to the kind of experiment: Dose response cell-based high throughput screening assay to identify enhancers of beta-glucosidase activity. [Related pubchem assays: 784 ]. The test is classed as functional.
Test [7] has as its system Trypanosoma cruzi. Kind of test: growth inhibition of intracellular Trypanosoma cruzi, dose response, cell-based, plate reader, dry powder, set 3 (AID 493197). The test is classed as functional.
For test [8], the system named is Streptococcus. As to the kind of experiment: Group A Streptococcus viability loss, dose response, counter-screen for streptokinase expression inhibitor project, luminescence, BacTiterGlo (AID 1915).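 Also: potency for reduction of bacterial viability or growth.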 The test is classed as functional, organism-based.
Test [9] relates to Streptococcus sp. 'group A'. As to the kind of experiment: growth inhibition of control SK(-) GAS strain, dose response, counter-screen for streptokinase expression inhibitor project, luminescence, kanamycin, BacTiterGlo, confirmation (AID 1900). The test is classed as functional, organism-based.
A short description of test [10]: inhibitors of SNCA 5'UTR-driven reporter translation, confirmation, H4 neuroglioma cells, luminescence (AID 1988). The test is classed as functional, cell-based.
The nature of test [11]: inhibitors of SNCA 5'UTR-driven translation, confirmation, luminescence, H4 neuroglioblastoma cells, dose confirmation (AID 2454).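 Also: H4 neuroglioblastoma cells carrying an alpha-synuclein 5'UTR luciferase reporter; potency for inhibition of the luciferase signal.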 The test is classed as functional, cell-based.
Test [12] in a line: NIH-3T3 fibroblast cytotoxicity, dose response, cytotoxicity control, cell-based, fluorescence, Alamar Blue, secondary assay (AID 2327).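 Also: NIH-3T3 mouse fibroblasts cultured with fluconazole at 8 µg/mL.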 In kind it is functional. (In general: The colour change of resazurin is a common sign of viable cells or microbes.)
Test [13] addresses G-protein coupled receptor 55 (Homo sapiens, UniProt Q9Y2T6). As to the kind of experiment: GPR55 agonists via beta-arrestin recruitment, primary screen, imaging, U2OS cells, beta-arrestin-GFP redistribution (AID 1961). The test is classed as functional.
Test [14] deals with T3, Streptokinase A (Streptococcus pyogenes serotype M1, UniProt P10520).
T3 sequence (P10520 whole entry): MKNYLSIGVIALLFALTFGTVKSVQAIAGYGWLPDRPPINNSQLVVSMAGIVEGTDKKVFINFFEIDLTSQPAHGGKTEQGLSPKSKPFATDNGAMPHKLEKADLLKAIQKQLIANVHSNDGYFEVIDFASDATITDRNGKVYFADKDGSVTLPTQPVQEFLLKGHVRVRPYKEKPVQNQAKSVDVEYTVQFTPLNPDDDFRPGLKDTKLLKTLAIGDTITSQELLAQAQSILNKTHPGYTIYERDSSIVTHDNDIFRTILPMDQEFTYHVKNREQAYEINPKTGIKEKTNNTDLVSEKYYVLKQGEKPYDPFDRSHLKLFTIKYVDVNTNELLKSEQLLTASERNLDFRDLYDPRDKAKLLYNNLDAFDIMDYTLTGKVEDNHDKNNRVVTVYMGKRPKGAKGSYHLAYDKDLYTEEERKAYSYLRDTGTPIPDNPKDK
Kind of test: S. pyogenes streptokinase expression inhibitors, potency, dose response, plasminogen activation absorbance, OD405 (AID 1914).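 Also: secreted streptokinase activity via plasminogen activation per viability signal from cell pellet.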 In kind it is functional, Streptococcus pyogenes M1 GAS.

Test [15] can be described thus: C. albicans growth with fluconazole, confirmation, fluorescence, retest (AID 2467). The test is classed as functional, cell-based.
A short description of test [16]: inhibitors of intracellular T. cruzi replication, confirmation, NIH3T3 host cells, beta-gal luminescence (AID 2044).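 Also: intracellular parasites grown in NIH/3T3 mouse fibroblasts as host cells; luminescent beta-galactosidase reporter signal from transgenic T. cruzi replicating inside host cells; inhibitors lower the luminescence signal.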 The test is classed as functional, cell-based.
Test [17] in a line: cytotoxicity toward NIH3T3 fibroblasts, dose response, counter-screen, cell-based, ATP luminescence, mouse fibroblasts (AID 2010).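 Also: cells exposed to compound for about 90 hours before reading.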 The test is classed as functional.
The subject of test [18] is INS1. As to the kind of experiment: beta cell apoptosis inhibitors, cytokine rescue, dose response, luminescence, retest (AID 449756).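 Also: cell death triggered by IL-1 beta plus TNF-alpha plus IFN-gamma mixture; protective hits raise ATP signal compared with cytokine alone wells.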 The test is classed as functional, cell-based. The conditions noted are these: Rattus norvegicus.
Test [19] in a line: cells. The test is classed as functional, cell-based.
Test [20] addresses T4, Serine/threonine-protein phosphatase (Candida dubliniensis (strain CD36 / CBS 7987 / NCPF 3949 / NRRLY-17841) (Yeast), UniProt B9W6M3).
T4 sequence (B9W6M3 whole entry): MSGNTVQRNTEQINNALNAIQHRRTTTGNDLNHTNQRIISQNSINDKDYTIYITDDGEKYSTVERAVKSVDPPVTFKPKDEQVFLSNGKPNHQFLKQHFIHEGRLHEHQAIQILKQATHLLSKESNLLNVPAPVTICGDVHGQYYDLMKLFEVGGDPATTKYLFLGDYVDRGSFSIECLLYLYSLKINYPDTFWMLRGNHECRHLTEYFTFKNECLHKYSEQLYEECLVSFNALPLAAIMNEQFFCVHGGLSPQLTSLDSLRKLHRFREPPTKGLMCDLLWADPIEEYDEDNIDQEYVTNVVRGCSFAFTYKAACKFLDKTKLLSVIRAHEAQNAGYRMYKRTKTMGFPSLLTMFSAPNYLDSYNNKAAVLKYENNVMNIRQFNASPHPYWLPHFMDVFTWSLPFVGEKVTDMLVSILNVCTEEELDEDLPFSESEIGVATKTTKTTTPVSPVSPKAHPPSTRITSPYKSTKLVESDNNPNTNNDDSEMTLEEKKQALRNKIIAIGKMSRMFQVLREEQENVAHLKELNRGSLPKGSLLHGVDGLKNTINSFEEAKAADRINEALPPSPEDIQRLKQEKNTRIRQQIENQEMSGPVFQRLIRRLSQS
As to the kind of experiment: calcineurin pathway inhibitors in yeast reporter, dose response, S. cerevisiae, CDRE-lacZ, luminescence, secondary (AID 2388).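 Also: yeast reporter cells carrying a calcineurin-responsive lacZ construct stimulated with calcium chloride; luminescent beta-galactosidase reporter signal in whole cells rather than isolated phosphatase activity; potency for inhibition where a drop in reporter signal means calcineurin blockade.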 The test is classed as functional, cell-based.

Test [21] addresses ATP-dependent molecular chaperone HSP82 (Candida albicans (strain WO-1) (Yeast), UniProt C4YTQ8). As to the kind of experiment: loss of DOC-induced GRE-beta-galactosidase reporter signal, dose response, Hsp90 inhibitor project, S. cerevisiae, luminescence (AID 2400).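 Also: beta-galactosidase luminescence from glucocorticoid response element reporter as proxy for Hsp90 function; inhibitor potency where signal loss means Hsp90 inhibition.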 In kind it is functional, cell-based.
Test [22] is described as follows: luciferase reporter signal reduction – luminescence, H4-C neuroglioblastoma cells, dose response (AID 2458).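 Also: H4 neuroglioblastoma cells stably carrying a luciferase reporter gene fusion.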 The test is classed as functional, cell-based.

Calls of active or inactive are those of the source. Rule as the data show it, for most assays here: actives have a measured EC50 and inactives only a lower limit. Bounds are passed on as bounds.

Signal transducer and activator of transcription 3, sequence (P40763 whole entry): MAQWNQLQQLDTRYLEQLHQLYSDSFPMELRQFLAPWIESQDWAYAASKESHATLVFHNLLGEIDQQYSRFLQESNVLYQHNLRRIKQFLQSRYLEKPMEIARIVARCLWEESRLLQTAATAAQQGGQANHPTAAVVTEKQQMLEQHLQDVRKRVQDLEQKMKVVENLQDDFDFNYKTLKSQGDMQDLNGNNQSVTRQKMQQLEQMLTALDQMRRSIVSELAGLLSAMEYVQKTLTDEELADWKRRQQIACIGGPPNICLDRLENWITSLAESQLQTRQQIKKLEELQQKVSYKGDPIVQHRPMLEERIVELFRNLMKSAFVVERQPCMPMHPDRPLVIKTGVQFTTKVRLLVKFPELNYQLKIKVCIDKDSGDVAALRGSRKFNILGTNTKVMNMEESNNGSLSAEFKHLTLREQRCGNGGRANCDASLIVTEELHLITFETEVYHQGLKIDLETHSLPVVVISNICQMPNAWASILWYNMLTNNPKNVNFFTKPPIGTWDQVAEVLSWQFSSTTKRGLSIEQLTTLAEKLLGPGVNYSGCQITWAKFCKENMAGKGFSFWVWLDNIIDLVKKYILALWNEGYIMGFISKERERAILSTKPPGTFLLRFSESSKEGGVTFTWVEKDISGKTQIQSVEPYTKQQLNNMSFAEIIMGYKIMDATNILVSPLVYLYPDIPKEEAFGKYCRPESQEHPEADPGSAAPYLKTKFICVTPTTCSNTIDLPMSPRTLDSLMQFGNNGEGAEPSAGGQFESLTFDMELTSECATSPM
G-protein coupled receptor 55, sequence (Q9Y2T6 whole entry): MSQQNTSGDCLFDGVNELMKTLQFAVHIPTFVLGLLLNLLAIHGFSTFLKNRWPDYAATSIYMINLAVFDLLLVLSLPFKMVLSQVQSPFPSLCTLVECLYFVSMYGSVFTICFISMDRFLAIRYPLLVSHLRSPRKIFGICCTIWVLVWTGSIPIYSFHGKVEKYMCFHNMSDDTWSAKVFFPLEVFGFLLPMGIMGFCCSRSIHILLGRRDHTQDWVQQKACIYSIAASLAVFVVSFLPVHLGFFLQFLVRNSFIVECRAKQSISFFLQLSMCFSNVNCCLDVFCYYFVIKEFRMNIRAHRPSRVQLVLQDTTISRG
Lysosomal acid glucosylceramidase, sequence (P04062 whole entry): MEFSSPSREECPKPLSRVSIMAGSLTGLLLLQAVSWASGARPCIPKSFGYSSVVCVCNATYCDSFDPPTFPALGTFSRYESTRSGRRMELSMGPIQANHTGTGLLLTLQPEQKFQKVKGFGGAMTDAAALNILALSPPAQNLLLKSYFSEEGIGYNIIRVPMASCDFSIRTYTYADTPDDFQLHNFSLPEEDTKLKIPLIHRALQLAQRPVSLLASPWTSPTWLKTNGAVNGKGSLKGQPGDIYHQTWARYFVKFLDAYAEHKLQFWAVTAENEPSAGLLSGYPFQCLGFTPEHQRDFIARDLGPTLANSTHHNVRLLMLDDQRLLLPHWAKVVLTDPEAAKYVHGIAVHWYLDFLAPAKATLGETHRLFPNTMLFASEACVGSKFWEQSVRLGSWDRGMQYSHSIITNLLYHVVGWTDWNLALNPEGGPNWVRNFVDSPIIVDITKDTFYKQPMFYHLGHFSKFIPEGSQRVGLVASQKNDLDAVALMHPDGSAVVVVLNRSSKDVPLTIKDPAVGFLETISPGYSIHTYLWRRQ
Transitional endoplasmic reticulum ATPase (Homo sapiens, UniProt P55072, C522A), sequence (P55072 2-806 C522A limits assumed): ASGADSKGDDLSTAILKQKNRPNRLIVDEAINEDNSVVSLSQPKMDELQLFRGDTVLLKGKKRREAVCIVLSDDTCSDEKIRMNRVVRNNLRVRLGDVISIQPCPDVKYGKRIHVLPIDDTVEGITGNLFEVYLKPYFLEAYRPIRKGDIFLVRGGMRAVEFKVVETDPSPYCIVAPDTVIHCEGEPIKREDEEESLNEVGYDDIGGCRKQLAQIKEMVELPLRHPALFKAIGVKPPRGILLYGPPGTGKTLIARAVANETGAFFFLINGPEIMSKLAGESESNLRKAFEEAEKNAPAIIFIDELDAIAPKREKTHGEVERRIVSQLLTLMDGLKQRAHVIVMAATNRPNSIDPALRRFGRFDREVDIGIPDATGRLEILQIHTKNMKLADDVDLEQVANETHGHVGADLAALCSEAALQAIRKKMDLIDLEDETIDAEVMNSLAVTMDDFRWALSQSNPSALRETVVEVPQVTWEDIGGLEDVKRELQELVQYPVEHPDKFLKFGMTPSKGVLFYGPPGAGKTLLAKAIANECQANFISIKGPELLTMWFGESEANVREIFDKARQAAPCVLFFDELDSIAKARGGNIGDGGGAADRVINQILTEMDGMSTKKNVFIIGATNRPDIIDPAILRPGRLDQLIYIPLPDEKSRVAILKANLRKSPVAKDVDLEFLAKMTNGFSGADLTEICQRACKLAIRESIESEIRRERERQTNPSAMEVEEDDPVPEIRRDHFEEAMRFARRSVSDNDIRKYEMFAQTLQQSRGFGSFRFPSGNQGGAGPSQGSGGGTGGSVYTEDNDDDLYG
ATP-dependent molecular chaperone HSP82, sequence (C4YTQ8 whole entry, the tested form may be a part): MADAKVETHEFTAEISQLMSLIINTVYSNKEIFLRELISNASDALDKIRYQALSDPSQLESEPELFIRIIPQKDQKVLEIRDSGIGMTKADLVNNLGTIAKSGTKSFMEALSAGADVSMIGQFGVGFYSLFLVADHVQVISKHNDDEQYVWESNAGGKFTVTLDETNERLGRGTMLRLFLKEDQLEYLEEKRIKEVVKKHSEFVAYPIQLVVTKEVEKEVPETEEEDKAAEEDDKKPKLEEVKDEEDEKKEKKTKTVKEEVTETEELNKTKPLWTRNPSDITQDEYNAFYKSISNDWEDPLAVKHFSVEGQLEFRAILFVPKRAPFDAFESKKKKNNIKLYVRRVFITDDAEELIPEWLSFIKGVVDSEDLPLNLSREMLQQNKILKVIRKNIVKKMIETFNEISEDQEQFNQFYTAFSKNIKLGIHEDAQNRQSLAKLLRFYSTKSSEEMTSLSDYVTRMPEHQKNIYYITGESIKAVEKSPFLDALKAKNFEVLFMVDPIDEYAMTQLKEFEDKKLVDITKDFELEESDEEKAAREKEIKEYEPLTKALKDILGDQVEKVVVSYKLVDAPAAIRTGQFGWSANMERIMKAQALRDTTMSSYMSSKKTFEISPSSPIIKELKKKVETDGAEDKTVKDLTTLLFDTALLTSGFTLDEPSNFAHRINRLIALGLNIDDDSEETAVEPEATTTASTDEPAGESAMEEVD
Transitional endoplasmic reticulum ATPase (Homo sapiens, UniProt P55072), sequence (P55072 whole entry): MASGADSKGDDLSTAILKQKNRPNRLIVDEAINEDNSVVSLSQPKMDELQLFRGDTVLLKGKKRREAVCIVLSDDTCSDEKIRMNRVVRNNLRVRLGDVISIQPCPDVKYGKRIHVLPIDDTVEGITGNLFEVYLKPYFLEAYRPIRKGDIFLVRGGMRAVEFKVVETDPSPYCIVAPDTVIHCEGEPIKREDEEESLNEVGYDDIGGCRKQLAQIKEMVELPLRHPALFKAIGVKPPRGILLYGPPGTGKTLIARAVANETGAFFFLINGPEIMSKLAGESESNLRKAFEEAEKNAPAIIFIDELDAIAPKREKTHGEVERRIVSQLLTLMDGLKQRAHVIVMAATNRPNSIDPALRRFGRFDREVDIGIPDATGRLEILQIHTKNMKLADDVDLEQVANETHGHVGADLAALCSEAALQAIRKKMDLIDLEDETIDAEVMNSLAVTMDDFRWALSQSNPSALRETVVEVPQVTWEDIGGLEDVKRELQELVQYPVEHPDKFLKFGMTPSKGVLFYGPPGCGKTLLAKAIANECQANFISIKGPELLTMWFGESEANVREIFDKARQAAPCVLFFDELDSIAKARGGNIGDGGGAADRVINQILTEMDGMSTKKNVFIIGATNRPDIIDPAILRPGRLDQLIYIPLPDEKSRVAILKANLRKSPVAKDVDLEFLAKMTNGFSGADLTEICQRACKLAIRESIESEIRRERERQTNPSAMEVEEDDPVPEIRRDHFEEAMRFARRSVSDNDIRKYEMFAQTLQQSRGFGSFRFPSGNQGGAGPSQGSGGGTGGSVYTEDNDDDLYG

On to `COc1ccccc1C(=O)Oc1cc(N)n(S(=O)(=O)c2ccc(C)cc2)n1`, for which the figures for the IC50 in [1], in test [2] and in test [3] were > 50 µM (not active), 99.9 µM (active) and > 50 µM (not active), respectively.

For `CCCc1cc(C(=O)Nc2cc(OC)c(Cl)cc2OC)no1`, the half-maximal effective concentration (EC50) – broadly, the concentration at which the effect is half-maximal – in test [4] is 0.00815 µM (active).

On to `CCC(C)N1CC(=O)C(c2nc3ccccc3[nH]2)=C1N` (configuration not stated), for which the half-maximal effective concentration (EC50) in test [5] was 98.9 µM (not active).

For `CC(C)n1c(S)nc2c1c(=O)[nH]c(=O)n2C`, in [6], the EC50 is listed as > 50 µM (not active).

As to `CCCN1CCC(N2CCCC(C(=O)N(C)CCc3ccc(OC)c(OC)c3)C2)CC1` (configuration not stated), the AC50 (as a rule, the midpoint of the concentration-response curve, whichever way the signal moves) in test [7] is 16.4 µM (active).

On to `CC1CCN(Cc2c(C(=O)N/N=C/c3cc(Br)ccc3O)nnn2-c2nonc2N)CC1`, for which the EC50 in [8] was 8.29 µM (active); in test [9] it was 4.79 µM (active); in [10], < 0.1 µM (active); in [11], > 12 µM (not active); in [12] it was 35.2 µM (inconclusive); in test [13] it was 1.63 µM (active). For the same compound, the 50% effective concentration (EC50) in test [14] is 40.3 µM (inconclusive); in test [15] it was 0.622 µM (active); in test [16], 0.556 µM (active); in test [17], 5.24 µM (active); in test [19], 0.982 µM (active); in test [20], > 180 µM (inactive). Also, the EC50 is > 160 µM (inactive) in test [21] and 1.79 µM (active) in test [22]. In test [18], the AC50 was 0.365 µM (active).
